Numbered stars: 1 amine (or outer) side, 2 acyl side, 3 side chain; on linkers, the order of the positions; unused ones are H or OH. Square brackets hold non-standard residues; d marks the D form. Peptide text beside a SMILES is read from it. X1 = O=C(c1ccc(-c2ccc(N3CCNCC3)cc2)c(CN[*:1])c1)[*:2]
Target: T1, integrin α4β7 (Homo sapiens, UniProt P13612+P26010)
T1 construct: purchased R&D Systems 5397-A3-050
T1 sequence (P13612 34-970 limits assumed): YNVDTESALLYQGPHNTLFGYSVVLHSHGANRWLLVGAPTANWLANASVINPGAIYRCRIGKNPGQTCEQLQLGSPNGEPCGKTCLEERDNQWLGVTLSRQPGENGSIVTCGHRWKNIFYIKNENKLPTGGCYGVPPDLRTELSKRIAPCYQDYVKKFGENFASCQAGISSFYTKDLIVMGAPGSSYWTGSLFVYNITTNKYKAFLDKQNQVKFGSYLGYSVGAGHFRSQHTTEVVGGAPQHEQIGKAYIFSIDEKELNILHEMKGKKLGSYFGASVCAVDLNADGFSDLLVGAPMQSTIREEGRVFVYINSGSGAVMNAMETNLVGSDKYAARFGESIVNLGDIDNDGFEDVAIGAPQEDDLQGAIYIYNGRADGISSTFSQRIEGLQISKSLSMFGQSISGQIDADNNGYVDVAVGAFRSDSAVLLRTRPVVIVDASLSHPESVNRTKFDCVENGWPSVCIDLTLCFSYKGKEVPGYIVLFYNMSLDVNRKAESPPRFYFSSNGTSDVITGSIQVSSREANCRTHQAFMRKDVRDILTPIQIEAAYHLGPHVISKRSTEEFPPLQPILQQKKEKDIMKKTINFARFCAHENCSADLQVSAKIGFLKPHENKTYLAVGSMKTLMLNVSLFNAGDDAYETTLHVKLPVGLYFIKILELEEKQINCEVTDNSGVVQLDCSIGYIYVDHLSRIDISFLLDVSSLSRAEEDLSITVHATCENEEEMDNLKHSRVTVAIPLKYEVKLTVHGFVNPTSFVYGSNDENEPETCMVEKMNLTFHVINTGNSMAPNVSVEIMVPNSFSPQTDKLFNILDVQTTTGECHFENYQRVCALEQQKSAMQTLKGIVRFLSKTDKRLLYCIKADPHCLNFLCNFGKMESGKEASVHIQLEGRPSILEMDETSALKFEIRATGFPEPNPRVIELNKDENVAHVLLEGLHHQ
T1 sequence (P26010 20-723 limits assumed): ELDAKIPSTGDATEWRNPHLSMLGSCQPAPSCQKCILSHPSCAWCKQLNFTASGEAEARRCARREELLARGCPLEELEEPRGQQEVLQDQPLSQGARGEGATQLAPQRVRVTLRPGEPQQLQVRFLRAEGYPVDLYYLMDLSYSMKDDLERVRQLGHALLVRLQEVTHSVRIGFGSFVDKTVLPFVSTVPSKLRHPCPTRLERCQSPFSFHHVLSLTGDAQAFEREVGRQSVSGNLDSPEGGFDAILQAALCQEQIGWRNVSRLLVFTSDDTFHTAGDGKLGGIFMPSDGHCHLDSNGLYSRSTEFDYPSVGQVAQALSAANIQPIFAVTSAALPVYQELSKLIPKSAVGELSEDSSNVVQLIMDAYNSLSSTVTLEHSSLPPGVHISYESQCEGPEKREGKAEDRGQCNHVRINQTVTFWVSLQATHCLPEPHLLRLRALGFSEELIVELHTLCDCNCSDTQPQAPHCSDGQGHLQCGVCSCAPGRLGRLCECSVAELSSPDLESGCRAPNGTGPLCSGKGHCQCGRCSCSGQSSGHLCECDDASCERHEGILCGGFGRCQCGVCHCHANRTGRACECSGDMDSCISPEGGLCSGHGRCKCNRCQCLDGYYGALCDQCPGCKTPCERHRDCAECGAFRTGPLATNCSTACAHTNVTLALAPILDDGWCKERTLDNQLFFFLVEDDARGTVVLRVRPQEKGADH
Experiment: Integrin α4β7-MAdCAM-1 ELISA competition assay
Format: binding
Conditions: values of the second run
Procedure: Integrin α4β7-MAdCAM-1 ELISA Competition Assay
A 96-well Microlon plate (Greiner, 655001) was coated with 100 μl per well of a solution of 1 μg/ml recombinant integrin α4β7 (R&D Systems, 5397-A3-050) in carbonate buffer (50 mM, pH 9.6). The plate was incubated at 4′C overnight. The solution was removed and 250 μl blocking buffer (50 mM Tris, 150 mM NaCl, 1 mM MnCl2, 1% BSA, 0.05% Tween) was added per well. The plate was then incubated for 1 hour at room temperature. The plate was washed three times with wash buffer (50 mM Tris, 100 mM NaCl, 1 mM MnCl2, 0.05% Tween). To each well, 50 μl of compound diluted in assay buffer was added by transfer from a compound serial dilution plate. 50 μl recombinant MAdCAM-Fc (R&D systems, 6056-MC-050) at a concentration of 0.1 μg/ml in assay buffer (50 mM Tris, 150 mM NaCl, 1 mM MnCl2, 0.1% BSA, 0.05% Tween) was added to each well. The plate was incubated at room temperature with shaking (300 rpm) for 2 hours to reach binding equilibrium. Then the plate was washed three times in wash buffer and 100 μl anti-human IgG Fc specific-HRP (Abcam, Ab97225) diluted at 1:2000 in assay buffer was added to each well. The plate was incubated at room temperature for 1 hour under agitation. […] The reaction was stopped after 2 minute-incubation by adding 50 μl of 1M H2SO4 and optical absorbance was read at 450 nm.

CC(C)C[C@@H]1NC(=O)c2ccc(-c3ccc(N4CCNCC4)cc3)c(c2)CNC(=O)[C@@H]2CCCN2C(=O)[C@H](C)NC(=O)[C@H]([C@@H](C)O)NC(=O)[C@H](CC(=O)O)NC1=O [Compound 8] (cyclo(P[X1]LDTA))
IC50: ~24 nM

Reference: patent US11286281B2, “Homodetic cyclic peptides targeting alpha-4-beta-7 integrin” (priority 2017, dated 2022)
